From patent US20110143406A1, “Novel (S,S) -Butanediol Dehydrogenase, Gene for the Same, and Use of the Same” (Kaneka Corporation, priority 2006, published 2011)

Test system: ROB ((S,S)-butanediol dehydrogenase)
Test: Substrate specificity of ROB: oxidation activity
Assay type: biochemical, Ochrobactrum sp. KNKc71-3
Conditions: each compound 10 mM, NAD+ 2 mM, phosphate buffer pH 8.0, 30° C., 1 minute, activity against 2,3-butanediol taken as 100
Experimental: Using the purified ROB obtained in Example 1, oxidation activity measurements were carried out by adding NAD^+ (2 mM), each compound (10 mM) shown in Table 2 and the enzyme solution to 100 mM phosphate buffer (pH 8.0), the reaction was allowed to proceed at 30° C. for 1 minute, and the increase in absorbance at the wavelength 340 nm was measured. The relative activity data are summarized in Table 2, with the activity against 2,3-butanediol being taken as 100.

Molecule	Relative activity (%)
CCCC(O)CO (stereo not drawn) [1,2-pentanediol]	4.4
CC(O)c1ccccc1 (stereo not drawn) [1-phenyl ethanol]	6.8
CCCO [1-propanol]	0
CC(O)CO (stereo not drawn) [1,2-propanediol]	57.9
CC(O)CCO (stereo not drawn) [1,3-butanediol]	0.5
CC(O)CCCO (stereo not drawn) [1,4-pentanediol]	3.3
CC(O)C(C)O (stereo not drawn) [2,3-butanediol]	100
CCC(O)CO (stereo not drawn) [1,2-butanediol]	8.2
CC(=O)C(C)O (stereo not drawn) [Acetoin]	0.4
CCCCCCC(C)O (stereo not drawn) [2-octanol]	59.6
CCC(O)CC [3-pentanol]	3.3
CO [Methanol]	0
CC(O)CCl (stereo not drawn) [1-chloro-2-propanol]	7.7
CCC(C)O (stereo not drawn) [2-butanol]	40.4
CCO [Ethanol]	0
CC(O)Cc1ccccc1 (stereo not drawn) [1-phenyl-2-propanol]	43.0
COC(=O)C(C)O (stereo not drawn) [Methyl lactate]	0.9
CCCC(C)O (stereo not drawn) [2-pentanol]	58.8
OCC(O)CCl (stereo not drawn) [3-chloro-1,2-propanediol]	3.9
CCOC(=O)C(C)O (stereo not drawn) [Ethyl lactate]	1.6
CCCCO [1-butanol]	0
CC(C)O [2-propanol]	5.1

Test system: ROB ((S,S)-butanediol dehydrogenase)
Test: not given
Assay type: biochemical, Ochrobactrum sp. KNKc71-3
Conditions: reduction; each compound 1 mM, NADH 0.167 mM, phosphate buffer pH 5.5, 30° C., 3 minutes; activity against 2,3-butanedione taken as 100

Molecule	Relative activity (%)
COC(=O)CC(C)=O [Methyl acetoacetate]	65.1
CCOC(=O)C(C)=O [Ethyl pyruvate]	176
COC(=O)C(C)=O [Methyl pyruvate]	136
CCC(C)=O [2-butanone]	0.9
CCCCCCC(C)=O [2-octanone]	2.8
CCOC(=O)C(Cl)C(C)=O (stereo not drawn) [Ethyl 2-chloroacetoacetate]	58.5
CC(=O)CO [Hydroxyacetone]	17.9
CCCC(C)=O [2-pentanone]	2.8
CC(=O)C(C)=O [2,3-butanedione]	100
CCOC(=O)CC(=O)CCl [Ethyl 4-chloroacetoacetate]	21.7
CCCCCC(C)=O [2-heptanone]	3.8
O=C(CO)CCl [1-chloro-3-hydroxyacetone]	94.3
CCCCC(C)=O [2-hexanone]	2.8

Test system: ROB ((S,S)-butanediol dehydrogenase)
Test: not given
Assay type: biochemical, Ochrobactrum sp. KNKc71-3
Conditions: oxidation; each compound 10 mM, NAD+ 2 mM, pH 8.0, 30° C., 1 minute; activity against (2S,3S)-2,3-butanediol taken as 100
Experimental: Using the purified ROB obtained in Example 1, oxidation activity measurement were carried out using, as substrates, optical isomers of each of 2-butanol, 2-pentanol, 1,2-propanediol, 2,3-butanediol and 3-chloro-1,2-propanediol. NAD^+ (2 mM), each compound (10 mM) and the enzyme solution were added to 100 mM phosphate buffer (pH 8.0), the reaction was allowed to proceed at 30° C. for 1 minute, and the increase in absorbance at the wavelength 340 nm.

Molecule	Relative activity (%)
CCC[C@@H](C)O [(R)-2-pentanol]	2.9
OC[C@H](O)CCl [(S)-3-chloro-1,2-propanediol]	0.1
C[C@H](O)[C@H](C)O [(2S,3S)-2,3-butanediol]	100
CCC[C@H](C)O [(S)-2-pentanol]	58.9
CC(O)C(C)O (stereo not drawn) [meso-2,3-butanediol]	38.9
OC[C@@H](O)CCl [(R)-3-chloro-1,2-propanedio]	3.5
C[C@H](O)CO [(S)-1,2-propanediol]	16.7
C[C@@H](O)[C@@H](C)O [(2R,3R)-2,3-butanediol]	0.6
C[C@@H](O)CO [(R)-1,2-propanediol]	8.0

Same assay, conditions: pH 8

Molecule	Relative activity (%)
CC[C@H](C)O [(S)-2-butanol]	44.2
CC[C@@H](C)O [(R)-2-butanol]	3.2

Test system: ROB ((S,S)-butanediol dehydrogenase)
Test: not given
Assay type: biochemical, Ochrobactrum sp. KNKc71-3
Conditions: pH 8

Molecule	Relative activity (%)
CCN1C(=O)C=CC1=O [N-ethylmaleimide]	93
[Cl-].[Cl-].[Co+2] [CoCl2]	66
O=C(O)CN(CCN(CC(=O)O)CC(=O)O)CC(=O)O [EDTA]	95
CC(=O)[O-].[Na+] [Sodium acetate]	96

Same assay, conditions: reagent 0.1 mM; (2S,3S)-2,3-butanediol 0.1 M, NAD+ 2 mM, pH 8.0, 30° C.; reagent-free activity taken as 100

Molecule	Relative activity (%)
[Cl][Hg][Cl] [HgCl2]	41

Same assay, conditions: reagent 1.0 mM; (2S,3S)-2,3-butanediol 0.1 M, NAD+ 2 mM, pH 8.0, 30° C.; reagent-free activity taken as 100

Molecule	Relative activity (%)
O=S(=O)([O-])[O-].[Mg+2] [MgSO4]	91
O=S(=O)(F)Cc1ccccc1 [Phenylmethylsulfonyl fluoride]	75
O=[N+]([O-])[O-].[Ag+] [AgNO3]	30
[Ba+2].[Cl-].[Cl-] [BaCl2]	56
O=S(=O)([O-])[O-].[Cu+2] [CuSO4]	81
O=S(=O)([O-])[O-].[Zn+2] [ZnSO4]	88
[Ca+2].[Cl-].[Cl-] [CaCl2]	86
[Cl][Mn][Cl] [MnCl2]	87
O=C(O)c1cc[c]([Hg][Cl])cc1 [p-chloromercuribenzoate]	84
[Cl][Hg][Cl] [HgCl2]	0

Test system: not listed separately
Test: Specific oxidation activity of purified enzyme
Assay type: biochemical, Ochrobactrum sp. KNKc71-3
Conditions: (2S,3S)-2,3-butanediol 100 mM, NAD+ 2 mM, pH 8.0, 30° C.
Experimental: In the examples described below, the oxidation activity of (S,S)-butanediol dehydrogenase was determined by adding (2S,3S)-2,3-butanediol (100 mM), NAD^+ (2 mM) and an enzyme solution to 100 mM phosphate buffer (pH 8.0) and measuring the increase in absorbance at the wavelength 340 nm at 30° C. The enzyme activity reducing 1 μmol of NAD^+ to NADH per minute was defined as 1 unit.
Ammonium sulfate was added to this active fraction to a concentration of 1 M, and the mixture was submitted to a Phenyl-TOYOPEARL 650M (product of Tosoh) column (50 ml) equilibrated in advance with 10 mM phosphate buffer (pH 7.0) containing 1 M ammonium sulfate for adsorption of the enzyme. After washing the column with the same buffer, the active fraction was eluted on a linear gradient from 1 M to 0 M ammonium sulfate. Ammonium sulfate was added to this active fraction to a concentration of 1.2 M, and the mixture was submitted to a Butyl-TOYOPEARL 650S (product of Tosoh) column (25 ml) equilibrated in advance with 10 mM phosphate buffer (pH 7.0) containing 1.2 M ammonium sulfate for adsorption of the enzyme. After washing the column with the same buffer, the active fraction was eluted on a linear gradient from 1.2 M to 0 M ammonium sulfate. This active fraction was analyzed by sodium dodecyl sulfate-polyacrylamide electrophoresis and found to give a single band. […]

Molecule	specific activity
ROB: purified (S,S)-butanediol dehydrogenase from Ochrobactrum sp. KNKc71-3, amino acid sequence SEQ ID NO:1	about 119 U/mg-protein

Test system: not listed separately
Test: Optimum temperature for action of ROB
Assay type: biochemical, Ochrobactrum sp. KNKc71-3
Conditions: (2S,3S)-2,3-butanediol oxidation, measured at 10 to 70° C., pH 8.0
Experimental: Using the purified ROB obtained in Example 1, (2S,3S)-2,3-butanediol oxidation activity measurements were carried out at 10 to 70° C. In the activity measurements, (2S,3S)-2,3-butanediol (0.1 M), NAD^+ 2 mM and the enzyme solution were added to 100 mM phosphate buffer (pH 8.0), the reaction was allowed to proceed at 10 to 70° C. for 1 minute, and the increase in absorbance at the wavelength 340 nm were measured.

Molecule	optimum temperature for the activity [°C]
ROB: purified (S,S)-butanediol dehydrogenase from Ochrobactrum sp. KNKc71-3, amino acid sequence SEQ ID NO:1	70
